Assay type in all cases: cell-based
Data set [1] concerns Staphylococcus aureus ATCC29213. In words: MIC, micro-broth dilution method. The settings on record: Staphylococcus aureus ATCC29213; 37° C., 20-22 h; read-out: Minimum inhibitory concentration. How it is done: (§1) The minimum inhibitory concentration (MIC) of pleuromutilin cinnamate easters and their starting materials was tested by a micro-broth dilution method, with retamoline, vornimulin and tiamulin as positive controls.
(§2) The experimental strains included Gram-positive bacteria: Methicillin-sensitive Staphylococcus epidermidis ATCC12228, Staphylococcus aureus ATCC29213 and ATCC25923, and Methicillin-resistant Staphylococcus aureus ATCC33591; Gram-negative bacteria: Acinetobacter baumannii ATCC19606 and E. coli Bacillus ATCC25922 (the strains used were from the American type culture collection (ATCC)).
A general note: Dilution methods test growth across graded concentrations, often in twofold steps.

The test system of data set [2] is Escherichia coli ATCC25922. Briefly: MIC, micro-broth dilution method. Conditions: Escherichia coli ATCC25922; 37° C., 20-22 h; read-out: Minimum inhibitory concentration. How it is done:
as §1, §2

Data set [3] concerns Staphylococcus aureus ATCC25923. Briefly: MIC, micro-broth dilution method. The settings on record: Staphylococcus aureus ATCC25923; 37° C., 20-22 h; read-out: Minimum inhibitory concentration. How it is done:
as §1, §2

Data set [4] relates to Methicillin-resistant Staphylococcus aureus ATCC33591. Briefly: MIC, micro-broth dilution method. Conditions: Methicillin-resistant Staphylococcus aureus ATCC33591; 37° C., 20-22 h; read-out: Minimum inhibitory concentration. How it is done: as §1, §2
Data set [5] concerns Acinetobacter baumannii ATCC19606. Briefly: MIC, micro-broth dilution method. The settings on record: for MIC: Acinetobacter baumannii ATCC19606, 37° C., 20-22 h, read-out: Minimum inhibitory concentration; for inhibition compared with tiamulin: Acinetobacter baumannii, statement in words from Table 1. As to the method: as §1, §2
The test system of data set [6] is Methicillin-sensitive Staphylococcus epidermidis ATCC12228. In words: MIC, micro-broth dilution method. The settings on record: for MIC: Methicillin-sensitive Staphylococcus epidermidis ATCC12228, 37° C., 20-22 h, read-out: Minimum inhibitory concentration; for inhibitory effect compared with the three tested positive controls: methicillin-sensitive Staphylococcus epidermidis, statement in words from Table 1. How it is done:
as §1, §2

Data set [7] is described as follows: In vitro cytotoxicity, CCK-8 method. Conditions: human, read-out: median inhibitory concentration (IC50), cytotoxicity. How it is done: The in vitro cytotoxicity of pleuromutilin easters was determined by a CCK-8 method (the kit used was purchased from Shanghai Xige Biotechnology Co., Ltd.). Take healthy HepG2, HEK293 and A549 cell culture fluids (the cells used were from the American type culture collection (ATCC), and the used cell culture fluids were purchased from Thermo Fisher Scientific (China) Co., Ltd.), inoculate in a sterile 96-well cell culture plate, 180 μL/well, ensure that the number of cells is 1*10^4/well, place in a 37° C. CO2 incubator with a volume fraction of 5%, and culture for 24 h until the cells completely adhered. Add the test and control solutions, 20 µL per well, set 6 duplicate wells in parallel, and incubate at 37° C. in a CO2 incubator with a volume fraction of 5% at 37° C. for 24 h, and observe the cells under a microscope. Add 20 μL of 5 g/L CCK-8 solution to each well, and continue to culture for 4 h. The culture was terminated, the culture medium in the wells was gently aspirated, 100 μL of dimethyl sulfoxide was added to each well, and the wells were shaken at low speed for 10 min on a shaker to fully dissolve the crystals. The absorbance value was measured, and the half inhibitory concentration (IC50) was then calculated. The cytotoxicity to HepG2, HEK293 and A549 cells was evaluated according to the half inhibitory concentration (IC50).
In general terms: Formazan colour is commonly taken as a measure of viable cells.

The subject of data set [8] is the different bacteria tested. In words: MIC, micro-broth dilution method, overall comparison over all strains. The settings on record: statement in words from Table 1. How it is done: as §1, §2

Values after ≈ are worked out from the molar mass of the structure shown. Read-outs that look alike come from different tables or passages of the source. Where only a bound is given, the exact number is not on record here.

`C=C[C@]1(C)C[C@@H](OC(=O)COC(=O)/C=C/c2cccc(C#N)c2)[C@]2(C)[C@H](C)CC[C@]3(CCC(=O)[C@H]32)[C@@H](C)[C@@H]1O` [Compound 5, (E)-2-(((3aR,4R,5R,8S,9R,12R)-8-hydroxy-4,7,9,12-tetramethyl-3-oxo-7-vinyldecahydro-4,9a-propanocyclopenta[8]annulen-5-yl)oxy)-2-oxoethyl 3-(3-cyanophenyl)acrylate]: the MIC in data set [1] stood at 8 µg/mL (≈ 15 µM); in data set [2] it was 64 µg/mL (≈ 120 µM); in data set [3] it was 2 µg/mL (≈ 3.75 µM); in data set [4], 16 µg/mL (≈ 30 µM); in data set [5], 128 µg/mL (≈ 240 µM); in data set [6] it was 2 µg/mL (≈ 3.75 µM). Further, the “inhibitory effect compared with the three tested positive controls” value in data set [6] is reported as “better than that of the positive controls”. For the same compound, the IC50 at 24 h in data set [7] (A549 cells) is above 200 µM; in data set [7] (HEK293 cells), 29.2 µM; in data set [7] (HepG2 cells) it was 78.5 µM.

With `C=C[C@]1(C)C[C@@H](OC(=O)COC(=O)/C=C/c2ccc(OC)cc2)[C@]2(C)[C@H](C)CC[C@]3(CCC(=O)[C@H]32)[C@@H](C)[C@@H]1O` [Compound 4, (E)-2-(((3aR,4R,5R,8S,9R,12R)-8-hydroxy-4,7,9,12-tetramethyl-3-oxo-7-vinyldecahydro-4,9a-propanocyclopenta[8]annulen-5-yl)oxy)-2-oxoethyl 3-(4-methoxyphenyl)acrylate], the MIC was 8 µg/mL (≈ 14.9 µM) in data set [1]; 32 µg/mL (≈ 59.4 µM) in data set [2]; 4 µg/mL (≈ 7.43 µM) in data set [3]; 16 µg/mL (≈ 29.7 µM) in data set [4]; above 256 µg/mL in data set [5]; 2 µg/mL (≈ 3.71 µM) in data set [6]. Further, in data set [6], the “inhibitory effect compared with the three tested positive controls” value is reported as “better than that of the positive controls”. Further, the IC50 at 24 h in data set [7] (A549 cells) came to 50.8 µM; in data set [7] (HEK293 cells), 90.2 µM; in data set [7] (HepG2 cells) it was 83.7 µM.

Regarding `C=C[C@]1(C)C[C@@H](OC(=O)CSCCN(CC)CC)[C@]2(C)[C@H](C)CC[C@]3(CCC(=O)[C@H]32)[C@@H](C)[C@@H]1O` [Tiamulin, reference compound], the MIC in data set [1] was found to be 256 µg/mL (≈ 518 µM); in data set [2], 128 µg/mL (≈ 259 µM); in data set [3], 64 µg/mL (≈ 130 µM); in data set [4], 128 µg/mL (≈ 259 µM); in data set [5] it was 64 µg/mL (≈ 130 µM); in data set [6], 16 µg/mL (≈ 32.4 µM). Besides, the IC50 at 24 h in data set [7] (A549 cells) is above 200 µM; in data set [7] (HEK293 cells) it was 84.9 µM; in data set [7] (HepG2 cells), 27.1 µM.

For the compound `C=C[C@]1(C)C[C@@H](OC(=O)COC(=O)/C=C/c2ccc(N(C)C)cc2)[C@]2(C)[C@H](C)CC[C@]3(CCC(=O)[C@H]32)[C@@H](C)[C@@H]1O` [Compound 10, (E)-2-(((3aR,4R,5R,8S,9R,12R)-8-hydroxy-4,7,9,12-tetramethyl-3-oxo-7-vinyldecahydro-4,9a-propanocyclopenta[8]annulen-5-yl)oxy)-2-oxoethyl 3-(4-(dimethylamino)phenyl)acrylate], the MIC was found to be 2 µg/mL (≈ 3.63 µM) in data set [1]; 16 µg/mL (≈ 29 µM) in data set [2]; 1 µg/mL (≈ 1.81 µM) in data set [3]; 2 µg/mL (≈ 3.63 µM) in data set [4]; 32 µg/mL (≈ 58 µM) in data set [5]; 1 µg/mL (≈ 1.81 µM) in data set [6]. Moreover, the “inhibition compared with tiamulin” value in data set [5] is “as much as tiamulin”. In addition, the “inhibitory effect compared with the three tested positive controls” value in data set [6] is “better than that of the positive controls”. For the same compound, the “inhibitory activity compared with the three tested positive controls” value in data set [8] is “better or equal to that of the three tested positive controls”. Further, the IC50 at 24 h in data set [7] (A549 cells) was above 200 µM; in data set [7] (HEK293 cells) it was 34.6 µM; in data set [7] (HepG2 cells), above 200 µM.

Regarding `C=C[C@]1(C)C[C@@H](OC(=O)COC(=O)/C=C/c2ccc([N+](=O)[O-])cc2)[C@]2(C)[C@H](C)CC[C@]3(CCC(=O)[C@H]32)[C@@H](C)[C@@H]1O` [Compound 1, (E)-2-(((3aR,4R,5R,8S,9R,12R)-8-hydroxy-4,7,9,12-tetramethyl-3-oxo-7-vinyldecahydro-4,9a-propanocyclopenta[8]annulen-5-yl)oxy)-2-oxoethyl 3-(4-nitrophenyl)acrylate], the MIC is 2 µg/mL (≈ 3.61 µM) in data set [1]; 32 µg/mL (≈ 57.8 µM) in data set [2]; 8 µg/mL (≈ 14.4 µM) in data set [3]; 4 µg/mL (≈ 7.22 µM) in data set [4]; 64 µg/mL (≈ 116 µM) in data set [5]; 2 µg/mL (≈ 3.61 µM) in data set [6]. The “inhibition compared with tiamulin” value in data set [5] was “as much as tiamulin”. For the same compound, the “inhibitory effect compared with the three tested positive controls” value in data set [6] is on record as “better than that of the positive controls”. Besides, the IC50 at 24 h in data set [7] (A549 cells), in data set [7] (HEK293 cells) and in data set [7] (HepG2 cells) was above 200 µM in each case.

The values above are taken from US11872202B2, “Pleuromutilin cinnamic acid ester compounds with activities against antibiotic-resistant infections” (SHAANXI UNIVERSITY OF SCIENCE AND TECHNOLOGY, priority 2021, dated 2024).
